# In PMC12238837, “DCAF16‐Based Covalent Molecular Glues for Targeted Protein Degradation of Histone Deacetylases” (Archiv Der Pharmazie, 2025):
# Where two headings read alike, the source gives them in different places.
# Tests used:
# HDAC2 [1] = molecular target: T1, HDAC2 (Homo sapiens, UniProt Q92769); assay: HDAC2 degradation, western blot in MM.1S cells; type: cell-based; set-up: endogenous in cells; host or cells: MM.1S
# Protocol: (§1) Subsequently, degrader 10a was investigated at various concentrations (1, 10, and 25 µM) for degradation effects on different HDAC isoforms, including HDAC2, HDAC3, and HDAC4. […] In detail, 10a induced a modest degradation of HDAC2 (D max = 46% at 25 μM), which may be attributed to the high structural similarity between HDAC1 and HDAC2, particularly in their catalytic domains.
# (§2) The MM.1S was obtained from ATCC (Manassas, VA, USA). MM.1S cells were cultivated in RPMI 1640 medium supplemented with 10% FBS, 100 IU/mL penicillin, 0.1 mg/mL streptomycin, and 1 mM sodium pyruvate at 37°C in a 5% CO2 atmosphere.
# (§3) The MM.1S cells (3 × 10^6 cells/mL) were seeded into cell culture flasks and, after 72 h, treated with the indicated concentration of compound or DMSO for the given time. Cell lysis was performed with Cell Extraction Buffer and the addition of Halt Protease Inhibitor Cocktail and phenylmethanesulfonyl fluoride. Protein content was determined by Pierce BCA Protein Assay Kit. Samples were denatured by Laemmli 2× Concentrate, and Precision Plus Protein Unstained Standard was used as a molecular weight marker in all cases. SDS‐PAGE was performed with 10% Mini‐PROTEAN TGX Stain‐Free Gel (Catalog# 458035, Bio‐Rad, Hercules, CA, USA) at 200 V for 50 min (Catalog# 458035, Bio‐Rad). Afterwards, proteins were transferred with the Trans‐Blot Turbo Transfer System to Immobilon‐FL PVDF membranes at 1.0 A for 30 min and incubated with 5% milk‐powder solution for 1 h at room temperature under slight agitation. […] The ChemiDoc XRS+ System was used for detection, and Image Lab Software 6.1 (Bio‐Rad, Hercules, CA, USA) for quantification.
# MM.1S cells [2] = assay: Annexin V-FITC/PI apoptosis assay, flow cytometry; type: cell-based; settings: 10 μM, 48 h
# Protocol: The percentage of cells that were annexin V‐positive but PI‐negative was considered as early apoptotic, whereas the percentage of cells that were both annexin V‐ and PI‐positive was considered as late apoptotic. Data are presented as mean ± standard deviation (n = 2 biological replicates, each performed in duplicates). Statistical analysis was performed by using one‐way ANOVA in GraphPad Prism 8. Statistical significance was indicated with asterisks (****p ≤ 0.0001).
# MM.1S cells (3 × 10^5 cells/well) were seeded in 24‐well plates and treated with the indicated concentration of compound or DMSO for 48 h under cell culture conditions. Subsequently, cells were washed with cell staining buffer (HEPES 0.1 M, NaCl 1.4 M, CaCl2·3H2O 25 mM), resuspended in 300 µL, and 150 µL was transferred in a 96‐well plate.
# HDAC3 = molecular target: T2, HDAC3 (Homo sapiens, UniProt O15379); assay: HDAC3 degradation, western blot in MM.1S cells; type: cell-based; settings: MM.1S cells, 1, 10, 25 μM
# T2 construct: endogenous in cells; host or cells: MM.1S
# T2 sequence (O15379 whole entry): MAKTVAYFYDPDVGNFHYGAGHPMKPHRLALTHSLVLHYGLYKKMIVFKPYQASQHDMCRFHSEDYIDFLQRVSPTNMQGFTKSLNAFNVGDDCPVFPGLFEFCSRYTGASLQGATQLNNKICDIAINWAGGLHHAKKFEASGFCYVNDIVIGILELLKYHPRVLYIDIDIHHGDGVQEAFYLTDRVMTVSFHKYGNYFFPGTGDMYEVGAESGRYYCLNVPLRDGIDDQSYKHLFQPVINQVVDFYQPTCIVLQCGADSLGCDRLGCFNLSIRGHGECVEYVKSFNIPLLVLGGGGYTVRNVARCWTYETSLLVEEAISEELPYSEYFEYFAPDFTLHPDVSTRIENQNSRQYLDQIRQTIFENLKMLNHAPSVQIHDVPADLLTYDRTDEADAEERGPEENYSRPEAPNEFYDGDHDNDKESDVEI
# Protocol: as §1, §2
# (§4) The MM.1S cells (3 × 10^6 cells/mL) were seeded into cell culture flasks and, after 72 h, treated with the indicated concentration of compound or DMSO for the given time. Cell lysis was performed with Cell Extraction Buffer and the addition of Halt Protease Inhibitor Cocktail and phenylmethanesulfonyl fluoride. Protein content was determined by Pierce BCA Protein Assay Kit. Samples were denatured by Laemmli 2× Concentrate, and Precision Plus Protein Unstained Standard was used as a molecular weight marker in all cases. […] The ChemiDoc XRS+ System was used for detection, and Image Lab Software 6.1 (Bio‐Rad, Hercules, CA, USA) for quantification.
# [3] = tested on: acetylated histone H3 (indicator of reduced HDAC1‐3 activity); assay: Cellular target engagement: immunoblot of acetylated histone H3; type: cell-based; settings: MM.1S cells, 10 µM, 24 h
# Protocol: (§5) Immunoblot analysis of acetylated histone H3 (A) and α‐tubulin (B) in MM.1S cell lysates after treatment with the indicated compounds (10 µM) or vehicle (DMSO) for 24 h. Representative images from a total of n = 2 replicates.
# as §3, with “agitation. Subsequently, the membranes were incubated with anti‐HDAC1 (Catalog# 5356S, Cell Signaling Technology, Denver, MA, USA), anti‐HDAC2 (Catalog# 9959S, Cell Signaling Technology, Denver, MA, USA), anti‐HDAC3 (Catalog# 85057S, Cell Signaling Technology, Denver, MA, USA), anti‐HDAC4 (Catalog# 7628S, Cell Signaling Technology, Denver, MA, USA), anti‐HDAC6 (Catalog# 7558S, Cell Signaling Technology, Denver, MA, USA), anti‐acetyl‐histone H3 (Catalog# 9677S, Cell Signaling Technology, Denver, MA, USA), anti‐acetyl‐α‐tubulin (Catalog# 5335, Cell Signaling Technology, Denver, MA, USA), or anti‐GAPDH (Catalog# T0004, Affinity Biosciences, Cincinnati, OH, USA) antibody solutions in 1:1000–1:20000 dilutions at room temperature under slight agitation for 1 h, then put membranes at 4°C for overnight.” for “agitation.”
# HDAC2 [4] = molecular target: T1, HDAC2; assay: HDAC enzyme inhibition assay (ZMAL substrate), HDAC2; type: biochemical; set-up: purchased BPS Bioscience 50052; settings: n = 2, mean ± SD
# Protocol: (§6) The total assay volume of 50 μL (HDAC2/3/6 max. 1% DMSO; HDAC1 max. 5% DMSO) was incubated at 37°C for 90 min. Subsequently, 50 μL of trypsin (0.4 mg/mL) in trypsin buffer (50 mM Tris−HCl, pH 8.0, 100 mM NaCl) was added, followed by an additional 30 min of incubation at 37°C. Fluorescence (excitation λ = 355 nm, emission λ = 460 nm) was measured using a FLUOstar OPTIMA microplate reader. The IC50 was determined by plotting dose–response curves and performing nonlinear regression using GraphPad Prism.
# as §6, with “by” for “by an”, “dose response” for “dose–response”, “Prism.^[3-6]” for “Prism.”
# HDAC1 [5] = molecular target: T3, HDAC1 (Homo sapiens, UniProt Q13547); assay: HDAC enzyme inhibition assay (ZMAL substrate), HDAC1; type: biochemical; set-up: purchased BPS Bioscience 50051; settings: n = 2, mean ± SD
# T3 sequence (Q13547 whole entry): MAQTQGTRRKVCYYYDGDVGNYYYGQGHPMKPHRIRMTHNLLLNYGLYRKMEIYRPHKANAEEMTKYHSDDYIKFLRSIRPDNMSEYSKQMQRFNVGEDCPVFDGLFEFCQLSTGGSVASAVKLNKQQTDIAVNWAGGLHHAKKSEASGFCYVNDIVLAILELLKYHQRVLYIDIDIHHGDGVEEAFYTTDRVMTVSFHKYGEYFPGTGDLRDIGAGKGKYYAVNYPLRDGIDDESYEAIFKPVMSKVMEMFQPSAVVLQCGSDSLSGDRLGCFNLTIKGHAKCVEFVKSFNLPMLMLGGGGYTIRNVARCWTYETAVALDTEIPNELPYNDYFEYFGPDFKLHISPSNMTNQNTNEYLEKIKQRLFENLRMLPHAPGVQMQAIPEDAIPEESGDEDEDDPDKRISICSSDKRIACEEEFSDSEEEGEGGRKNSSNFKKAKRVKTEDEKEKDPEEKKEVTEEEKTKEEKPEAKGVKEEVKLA
# Protocol: as §6
# as §6, with “by” for “by an”, “dose response” for “dose–response”, “Prism.^[3-6]” for “Prism.”
# HDAC4 = molecular target: T4, HDAC4 (Homo sapiens, UniProt P56524); assay: HDAC4 degradation, western blot in MM.1S cells; type: cell-based; settings: MM.1S cells, 1, 10, 25 μM
# T4 construct: HDAC2, HDAC3, and HDAC4 levels were detected by immunoblot analysis; endogenous in cells; host or cells: MM.1S
# T4 sequence (P56524 whole entry): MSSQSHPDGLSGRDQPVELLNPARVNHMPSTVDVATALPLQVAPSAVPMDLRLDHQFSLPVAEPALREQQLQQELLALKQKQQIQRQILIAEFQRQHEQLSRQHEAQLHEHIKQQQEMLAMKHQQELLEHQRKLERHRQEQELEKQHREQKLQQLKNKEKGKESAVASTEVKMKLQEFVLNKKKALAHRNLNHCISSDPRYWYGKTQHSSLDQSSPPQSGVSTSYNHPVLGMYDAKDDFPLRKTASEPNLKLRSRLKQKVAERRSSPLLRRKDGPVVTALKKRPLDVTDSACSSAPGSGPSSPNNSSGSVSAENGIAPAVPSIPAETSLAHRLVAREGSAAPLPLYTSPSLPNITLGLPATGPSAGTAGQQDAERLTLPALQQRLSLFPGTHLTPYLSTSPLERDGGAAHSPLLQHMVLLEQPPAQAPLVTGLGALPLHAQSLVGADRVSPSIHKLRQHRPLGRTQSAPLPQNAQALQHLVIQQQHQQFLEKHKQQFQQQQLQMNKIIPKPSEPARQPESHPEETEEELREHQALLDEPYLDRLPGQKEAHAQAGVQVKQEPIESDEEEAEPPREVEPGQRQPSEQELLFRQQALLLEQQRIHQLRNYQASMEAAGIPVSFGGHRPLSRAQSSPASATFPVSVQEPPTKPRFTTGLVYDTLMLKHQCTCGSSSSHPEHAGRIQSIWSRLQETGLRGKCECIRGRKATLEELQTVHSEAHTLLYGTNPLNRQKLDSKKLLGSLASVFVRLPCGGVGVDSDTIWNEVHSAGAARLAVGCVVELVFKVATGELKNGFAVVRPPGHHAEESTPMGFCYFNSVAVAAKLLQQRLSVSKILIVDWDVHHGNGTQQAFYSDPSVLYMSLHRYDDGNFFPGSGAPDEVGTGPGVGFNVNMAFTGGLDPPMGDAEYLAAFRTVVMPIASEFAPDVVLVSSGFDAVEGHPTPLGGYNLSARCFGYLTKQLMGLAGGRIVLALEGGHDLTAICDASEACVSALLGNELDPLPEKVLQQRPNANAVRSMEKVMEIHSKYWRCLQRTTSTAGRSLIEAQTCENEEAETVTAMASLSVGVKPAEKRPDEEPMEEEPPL
# Protocol: as §1, §2, §4
# Human recombinant HDAC6 = molecular target: T5, Human recombinant HDAC6 (Homo sapiens, UniProt Q9UBN7); assay: HDAC enzyme inhibition assay (ZMAL substrate), HDAC6; type: biochemical; settings: n = 2, mean ± SD
# T5 construct: purchased BPS Bioscience 50006
# T5 sequence (Q9UBN7 1-1215): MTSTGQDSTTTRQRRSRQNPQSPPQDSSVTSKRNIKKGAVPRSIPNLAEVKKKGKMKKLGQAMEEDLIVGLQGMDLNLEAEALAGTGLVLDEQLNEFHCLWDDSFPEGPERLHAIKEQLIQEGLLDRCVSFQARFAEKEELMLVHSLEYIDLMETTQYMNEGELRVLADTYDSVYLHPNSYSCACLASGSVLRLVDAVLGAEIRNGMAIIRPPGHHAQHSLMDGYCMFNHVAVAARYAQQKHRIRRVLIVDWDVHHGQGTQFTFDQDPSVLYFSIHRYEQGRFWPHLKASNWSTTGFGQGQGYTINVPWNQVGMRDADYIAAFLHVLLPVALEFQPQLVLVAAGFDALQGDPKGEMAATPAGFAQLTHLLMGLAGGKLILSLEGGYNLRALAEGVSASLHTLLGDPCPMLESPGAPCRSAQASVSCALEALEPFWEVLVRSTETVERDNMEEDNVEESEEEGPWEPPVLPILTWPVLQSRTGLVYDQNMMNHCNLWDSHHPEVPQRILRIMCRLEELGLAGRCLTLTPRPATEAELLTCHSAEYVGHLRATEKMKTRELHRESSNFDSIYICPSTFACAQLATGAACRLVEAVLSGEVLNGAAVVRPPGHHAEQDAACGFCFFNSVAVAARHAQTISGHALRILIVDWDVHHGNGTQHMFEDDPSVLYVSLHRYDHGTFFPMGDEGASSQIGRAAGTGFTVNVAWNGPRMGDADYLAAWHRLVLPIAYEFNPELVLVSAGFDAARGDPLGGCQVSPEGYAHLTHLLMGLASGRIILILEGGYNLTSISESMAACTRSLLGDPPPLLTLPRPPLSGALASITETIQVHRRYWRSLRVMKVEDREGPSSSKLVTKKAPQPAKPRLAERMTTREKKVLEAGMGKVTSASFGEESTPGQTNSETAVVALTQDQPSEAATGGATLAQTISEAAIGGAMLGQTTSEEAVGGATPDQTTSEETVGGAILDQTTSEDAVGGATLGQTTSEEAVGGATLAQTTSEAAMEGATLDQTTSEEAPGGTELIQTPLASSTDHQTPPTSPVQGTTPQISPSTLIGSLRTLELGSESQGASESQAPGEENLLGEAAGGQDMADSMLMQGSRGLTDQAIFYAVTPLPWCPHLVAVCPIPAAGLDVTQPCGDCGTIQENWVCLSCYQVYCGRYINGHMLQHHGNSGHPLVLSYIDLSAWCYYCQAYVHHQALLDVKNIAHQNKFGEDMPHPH
# Protocol: as §6
# as §6, with “by” for “by an”, “dose response” for “dose–response”, “Prism.^[3-6]” for “Prism.”
# [6] = tested on: acetylated α‐tubulin (marker of decreased HDAC6 activity); assay: Cellular target engagement: immunoblot of acetylated α-tubulin; type: cell-based; settings: MM.1S cells, 10 µM, 24 h
# Protocol: as §5
# as §3, with “agitation. Subsequently, the membranes were incubated with anti‐HDAC1 (Catalog# 5356S, Cell Signaling Technology, Denver, MA, USA), anti‐HDAC2 (Catalog# 9959S, Cell Signaling Technology, Denver, MA, USA), anti‐HDAC3 (Catalog# 85057S, Cell Signaling Technology, Denver, MA, USA), anti‐HDAC4 (Catalog# 7628S, Cell Signaling Technology, Denver, MA, USA), anti‐HDAC6 (Catalog# 7558S, Cell Signaling Technology, Denver, MA, USA), anti‐acetyl‐histone H3 (Catalog# 9677S, Cell Signaling Technology, Denver, MA, USA), anti‐acetyl‐α‐tubulin (Catalog# 5335, Cell Signaling Technology, Denver, MA, USA), or anti‐GAPDH (Catalog# T0004, Affinity Biosciences, Cincinnati, OH, USA) antibody solutions in 1:1000–1:20000 dilutions at room temperature under slight agitation for 1 h, then put membranes at 4°C for overnight.” for “agitation.”
# MM.1S cells [7] = assay: CellTiter-Glo cell viability assay; type: cell-based; settings: Homo sapiens, MM1.S, 72 h, read-out: IC50 cell viability
# Protocol: The MM.1S was obtained from ATCC (Manassas, VA, USA).
# (§7) For this purpose, the dilution series was prepared at 200× concentration in DMSO and then further diluted to 10× concentration in medium. The final DMSO concentration was 0.5%. The toxicity of compounds was assessed after 72 h using the CellTiter‐Glo 2.0 cell viability assay. Luminescence was then measured, and the IC50 was determined by plotting dose–response curves and performing nonlinear regression using GraphPad Prism.
# as §7, with “series were” for “series was”, “the CellTiter-Glo” for “the CellTiter‐Glo”, “plotting dose-response” for “plotting dose–response”, “GraphPad Prism.^[1]” for “GraphPad Prism.”
# [8] = molecular target: T6, Human recombinant HDAC3/NcoR2 (Homo sapiens, UniProt O15379); assay: HDAC enzyme inhibition assay (ZMAL substrate), HDAC3; type: biochemical; settings: n = 2, mean ± SD
# T6 construct: purchased BPS Bioscience 50003
# T6 sequence (O15379 whole entry): as the sequence (O15379 whole entry) above
# T6 sequence (Q9Y618 395-489 partner limits assumed): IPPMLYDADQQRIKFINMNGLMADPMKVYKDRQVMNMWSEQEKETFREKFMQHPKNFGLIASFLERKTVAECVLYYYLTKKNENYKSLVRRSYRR
# Protocol: as §6
# as §6, with “by” for “by an”, “dose response” for “dose–response”, “Prism.^[3-6]” for “Prism.”
# HDAC1 [9] = molecular target: T3, HDAC1; assay: HDAC1 degradation, western blot in MM.1S cells; type: cell-based; set-up: endogenous in cells; host or cells: MM.1S; settings: 24 h; for HDAC1 protein levels: immunoblot
# Protocol: First, the multiple myeloma cell line MM.1S was treated with varying concentrations (1, 10, and 25 µM) of degraders 10a–d for 6 and 24 h, respectively. HDAC1 and HDAC6 were selected for investigation due to their critical roles in various diseases such as cancer. HDAC1 and HDAC6 protein levels were subsequently evaluated using western blot analysis. […] This limited efficacy could be due to insufficient incubation time of the compounds with MM.1S cells. […] All compounds still exerted no degradation of HDAC6 at different concentrations after 24 h of treatment. However, different from 10b–d, degrader 10a, which contains a hydroxamic acid as ZBG, achieved substantial degradation of HDAC1 with a maximal degradation (D max) value of 74% at 25 μM. Consequently, Compound 10a was selected for further biological evaluations based on the initial screening results.
# as §2, §3
# T1 sequence (Q92769 whole entry, the tested form may be a part, canonical isoform): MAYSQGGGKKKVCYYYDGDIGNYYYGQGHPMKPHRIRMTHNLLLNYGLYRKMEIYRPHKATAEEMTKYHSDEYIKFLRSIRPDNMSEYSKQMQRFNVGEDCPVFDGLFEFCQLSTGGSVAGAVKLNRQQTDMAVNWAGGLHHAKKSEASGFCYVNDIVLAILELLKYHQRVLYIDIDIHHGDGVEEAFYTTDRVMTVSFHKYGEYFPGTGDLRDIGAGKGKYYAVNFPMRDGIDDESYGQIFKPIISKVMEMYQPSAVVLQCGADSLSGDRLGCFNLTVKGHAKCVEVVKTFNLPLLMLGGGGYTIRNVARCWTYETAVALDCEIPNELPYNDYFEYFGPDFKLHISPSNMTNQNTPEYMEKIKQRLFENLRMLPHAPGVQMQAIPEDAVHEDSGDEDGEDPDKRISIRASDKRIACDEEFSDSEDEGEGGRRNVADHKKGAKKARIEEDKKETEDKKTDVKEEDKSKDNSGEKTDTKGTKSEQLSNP
smiles,measurement,setting,value
"C=CS(=O)(=O)N1CCN(C(=O)Cc2ccc(NC(=O)CCCCCCC(=O)NO)cc2)CC1 [Compound 10a, N ^1‐Hydroxy‐N ^8‐(4‐{2‐oxo‐2‐[4‐(vinylsulfonyl)piperazin‐1‐yl]ethyl}phenyl)octanediamide]",Dmax at 25 µM,"HDAC2 [1]; MM1.S, MM.1S cells, 25 μM, 24 h, read-out: maximal degradation (Dmax) of HDAC2",46%
same,HDAC2 degradation,"HDAC2 [1]; MM.1S cells, 1, 10, 25 μM, 6 h",none of the used concentrations resulted in the degradation
same,HDAC2 protein levels,"HDAC2 [1]; MM.1S cells, 1, 10, 25 μM, 24 h",slightly affected
same,apoptosis induction: proportions of early and late apoptotic cells,MM.1S cells [2],markedly increased
same,HDAC3 degradation,HDAC3; 6 h,none of the used concentrations resulted in the degradation
same,HDAC3 protein levels,HDAC3; 24 h,minimal impact
same,effect on histone H3 acetylation compared with vorinostat,[3],markedly lower than that of vorinostat
same,level of acetylated histone H3,[3],pronounced upregulation
same,IC50,HDAC2 [4],88 ± 7 nM
same,IC50,HDAC1 [5],17 ± 1 nM
same,HDAC4 degradation,HDAC4; 6 h,none of the used concentrations resulted in the degradation
same,HDAC4 protein levels,HDAC4; 24 h,minimal impact
same,IC50,Human recombinant HDAC6,27 ± 8 nM
same,hyperacetylation of α-tubulin compared with vorinostat,[6],"comparable to its parent inhibitor, vorinostat"
same,level of acetylated α-tubulin,[6],pronounced upregulation
same,IC50,"MM.1S cells [7]; MM.1S cells, CellTiter-Glo, n = 3, mean ± SD",6480 ± 1180 nM
same,IC50,[8],51 ± 4 nM
same,HDAC1 protein levels,HDAC1 [9]; 25 μM,induced a reduction of HDAC1 protein levels
same,DC50,"HDAC1 [9]; 0.37 up to 30 μM, western blot, read-out: half-maximal degradation concentration (DC50) for HDAC1",8800 ± 4400 nM
same,Dmax at 25 µM,"HDAC1 [9]; MM1.S, 25 μM, western blot, read-out: maximal degradation (Dmax) of HDAC1",74%
"CCS(=O)(=O)N1CCN(C(=O)Cc2ccc(NC(=O)CCCCCCC(=O)NO)cc2)CC1 [10a‐nc, N ^1‐(4‐{2‐[4‐(Ethylsulfonyl)piperazin‐1‐yl]‐2‐Oxoethyl}phenyl)‐N ^8‐Hydroxyoctanediamide]",IC50,HDAC2 [4],423 ± 63 nM
same,IC50,HDAC1 [5],229 ± 4 nM
same,IC50,[8],323 ± 22 nM
same,HDAC1 protein levels,HDAC1 [9]; 25 μM,did not affect HDAC1 levels
O=C(CCCCCCC(=O)Nc1ccccc1)NO [Vorinostat],IC50,MM.1S cells [7],790 ± 130 nM
